In patent US20110027324A1, “O-DESMETHYL-V[…] TREATING MAJOR DEPRESSIVE DISORDER” (Wyeth LLC, priority 2007, published 2011):

Tests used:
Assay type in all cases: in vivo, human
[1] = system: subjects with a primary diagnosis of MDD; assay: MDD Study No. 3: efficacy evaluation, randomized double-blind placebo-controlled study; details: for CGI-S score, Δ from Baseline: baseline 4.3, placebo −1.10; for HAM-D6, Δ from Baseline: placebo −4.82; for MADRS total score, Δ from Baseline: placebo −11.0
Description: This example describes the results of a third multicenter, randomized, double-blind, placebo-controlled, parallel-group study that was also designed to evaluate the efficacy and safety of 50 and 100 mg/day ODV for treating MDD.
Subjects were male or female adults that met the same criteria as the subjects in Example 1. The administration protocols for 50 or 100 mg/day and placebo groups were the same as in Example 1.
The primary and secondary outcomes were the same as in Example 1 as were the statistical methods. A Global F-test was also used to analyze the results. The purpose of this test was to compare the two fixed doses with placebo to control for Type-I error. Statistical significance is met if the p-value for the Global F-test <0.05, followed by un-adjusted pairwise comparison between either dose and placebo at 0.05 significance level.

[2] = system: subjects with a primary diagnosis of MDD; assay: MDD Study No. 3: safety evaluation (discontinuations, AEs); details: count; for Adverse Event Abnormal Dreams, subjects / Adverse Event Vomiting, subjects: placebo 3 (2); for Adverse Event Constipation, subjects: placebo 4 (3); for Adverse Event Anorexia, subjects / Adverse Event Flu Syndrome, subjects: placebo 5 (3); for Adverse Event Asthenia, subjects / Adverse Event Insomnia, subjects: placebo 6 (4); for Adverse Event Somnolence, subjects: placebo 8 (5); for Adverse Event Nausea, subjects: placebo 14 (9)
Description: The safety of the two doses was determined using the same assessments as in Example 1.

[3] = system: subjects with a primary diagnosis of MDD; assay: MDD Study No. 1: safety evaluation (AEs, DESS, laboratory, vital signs, ECG); details: for subjects with AEs as reason for study discontinuation: double-blind on-therapy period, placebo 3%; for subjects reporting serious or noteworthy AEs: none in placebo; for subjects with AEs of clinical importance: placebo 4
Description: On study day −1 (baseline), eligible subjects were randomly assigned to 1 of 2 fixed doses of ODV (50 or 100 mg/day) or to placebo for the 8-week double-blind treatment period. A 7-day taper period after the end of double-blind treatment was recommended but may have been omitted, shortened, or lengthened at the discretion of the investigator. Subjects assigned to the ODV 50 mg dose group received their maintenance dose beginning on study day 1 and continued this regimen until study day 56 or early withdrawal. For the taper period (days 1 through 7 after the end of the double-blind treatment period), they received 0 mg. Subjects assigned to the ODV 100 mg dose group were titrated to their maintenance dose. On study days 1 through 7 they received ODV 50 mg/day. Beginning on study day 8, they received their assigned dose of ODV 100 mg/day and continued on this regimen until study day 56 or early withdrawal. For the taper period (days 1 through 7 after the end of the double-blind treatment period), they received ODV 50 mg/day. Subjects assigned to placebo received their maintenance dose (0 mg) from study day 1 through day 56 or early withdrawal, and also received 0 mg during the taper period.
The safety of the two doses was determined using the following assessments: monitoring of adverse events (AEs), withdrawal because of AEs, concomitant medications, physical examinations, standard 12-lead electrocardiograms (ECGs), vital signs (supine and standing pulse rate and blood pressure (BP); body weight), laboratory determinations (hematology, blood chemistry, and urinalysis; free thyroxine index, including total thyroxine and triiodothyronine, and the β-HCG), and the Discontinuation-Emergent Signs and Symptoms (DESS) checklist.

[4] = 50 mg group, number of subjects
[5] = 100 mg group, number of subjects

**Q.** Which results are given for `CN(C)CC(c1ccc(O)cc1)C1(O)CCCCC1` (centres unmarked) [ODV, 1-[2-(dimethylamino)-1-(4-phenol)ethyl]-cyclohexanol]?
**A.** HAM-D17 total score, Diff. versus Placebo (95% CI) ([1]; 50 mg/day, LOCF): 1.1 (−0.6, 2.7); HAM-D17 total score, Diff. versus Placebo (95% CI) ([1]; 50 mg/day, MMRM): 1.4 (−0.0, 2.8); HAM-D17 total score, Diff. versus Placebo (95% CI) ([1]; 50 mg/day, OC): 1.8 (−0.1, 3.6); CGI-S score, Δ from Baseline ([1]; 50 mg/day): −1.25; HAM-D6, Δ from Baseline ([1]; 50 mg/day, baseline 12.8): −5.41; MADRS total score, Δ from Baseline ([1]; 50 mg/day, baseline 30.1): −12.7; HAM-D17 total score, Diff. versus Placebo (95% CI) ([1]; 100 mg/day, LOCF): 1.8 (0.2, 3.4); HAM-D17 total score, Diff. versus Placebo (95% CI) ([1]; 100 mg/day, MMRM): 2.2 (0.7, 3.6); HAM-D17 total score, Diff. versus Placebo (95% CI) ([1]; 100 mg/day, OC): 2.9 (1.0, 4.7); CGI-S score, Δ from Baseline ([1]; 100 mg/day): −1.44; HAM-D6, Δ from Baseline ([1]; 100 mg/day, baseline 12.9): −6.15; MADRS total score, Δ from Baseline ([1]; 100 mg/day, baseline 30.0): −14.4; Discontinued, reason Adverse Event, subjects ([2]; 50 mg, n = 148): 8 (5); Adverse Event Abnormal Dreams, subjects ([2]; 50 mg, n = 148): 5 (3); Adverse Event Vomiting, subjects ([2]; 50 mg, n = 148): 2 (1); Adverse Event Constipation, subjects ([2]; 50 mg, n = 148): 9 (6); Adverse Event Anorexia, subjects ([2]; 50 mg, n = 148): 14 (10); Adverse Event Flu Syndrome, subjects ([2]; 50 mg, n = 148): 6 (4); Adverse Event Asthenia, subjects ([2]; 50 mg, n = 148): 12 (8); Adverse Event Insomnia, subjects ([2]; 50 mg, n = 148): 20 (14); Adverse Event Somnolence, subjects ([2]; 50 mg, n = 148): 14 (10); Adverse Event Nausea, subjects ([2]; 50 mg, n = 148): 33 (22); Discontinued, reason Adverse Event, subjects ([2]; 100 mg, n = 150): 11 (7); Adverse Event Abnormal Dreams, subjects ([2]; 100 mg, n = 150): 4 (3); Adverse Event Vomiting, subjects ([2]; 100 mg, n = 150): 6 (4); Adverse Event Constipation, subjects ([2]; 100 mg, n = 150): 10 (7); Adverse Event Anorexia, subjects ([2]; 100 mg, n = 150): 14 (9); Adverse Event Flu Syndrome, subjects ([2]; 100 mg, n = 150): 10 (7); Adverse Event Asthenia, subjects ([2]; 100 mg, n = 150): 18 (12); Adverse Event Insomnia, subjects ([2]; 100 mg, n = 150): 26 (17); Adverse Event Somnolence, subjects ([2]; 100 mg, n = 150): 18 (12); Adverse Event Nausea, subjects ([2]; 100 mg, n = 150): 35 (23); most common (incidence≧5%) taper/poststudy-emergent AEs ([3]; 50 mg group): diarrhea, nausea, abnormal dreams, dizziness, and hostility; subjects with AEs as reason for study discontinuation ([3]; 50 mg group, 151 subjects): 3%; p-value, mean DESS scores compared with placebo ([3]; 50 mg group, first week of the taper period): 0.001; subjects with clinically important AE hypertension [3, 4]: 2; subjects with clinically important AE hypotension [3, 4]: 2; subjects with laboratory values considered clinically important by the medical monitor [3, 4]: 2; subjects reporting serious or noteworthy AEs [3, 4]: 5; subjects with AEs of clinical importance [3, 4]: 13; subjects with AEs as reason for study discontinuation ([3]; 100 mg group, 148 subjects): 7%; subjects with clinically important AE hypertension [3, 5]: 1; subjects with laboratory values considered clinically important by the medical monitor [3, 5]: 3; subjects reporting serious or noteworthy AEs [3, 5]: 4; subjects with AEs of clinical importance [3, 5]: 10; subjects with clinically important vital signs results ([3]; ODV treated subjects, both doses, 3 elevated supine BP, 1 postural hypotension): four; clinically important findings for ECGs or ECG-related AEs ([3]; all subjects, 50 and 100 mg/day): None of the subjects had clinically important findings for ECGs
